Measurements from patent US20060148030A1, “Nuclear receptor err y 3” (FUJISAWA PHARMACEUTICAL CO., LTD, priority 2002, published 2006).

T1: ERRγ1 (Homo sapiens, UniProt P62508)
T1 sequence (P62508 1-435 isoform P62508-2): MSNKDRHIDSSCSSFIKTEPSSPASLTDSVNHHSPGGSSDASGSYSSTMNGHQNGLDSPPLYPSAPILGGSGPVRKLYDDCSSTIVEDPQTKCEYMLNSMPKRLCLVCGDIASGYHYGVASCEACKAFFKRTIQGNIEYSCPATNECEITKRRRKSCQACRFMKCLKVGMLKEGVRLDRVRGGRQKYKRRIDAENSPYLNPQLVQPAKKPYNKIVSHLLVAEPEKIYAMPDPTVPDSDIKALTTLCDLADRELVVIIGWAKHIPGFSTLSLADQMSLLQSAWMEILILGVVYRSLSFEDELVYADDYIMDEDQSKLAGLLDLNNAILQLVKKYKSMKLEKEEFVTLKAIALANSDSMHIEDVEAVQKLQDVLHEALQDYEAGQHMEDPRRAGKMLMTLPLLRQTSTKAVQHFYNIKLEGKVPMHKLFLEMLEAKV


Columns and labels:
[1] = target: T1, ERRγ1; settings: stated as known property; cited from earlier work
[2] = system: ERE (estrogen response element); test: Reporter gene assay of ERRγ3 alone, ERE luciferase reporter in CV-1 cells; format: cell-based, African green monkey; settings: ERRγ3 expression plasmid alone, FIG. 15
Description: In order to construct a reporter gene assay system for evaluation of the transcription-controlling activity of ERRγ3, a reporter plasmid into which ERE (estrogen response element) was inserted was prepared along with expression plasmids for ERRγ3 and ERRγ2, as follows: A reporter gene assay was performed by transfecting the reporter plasmid and expression plasmids into cultured cells by lipofection, followed by incubating the cells for a certain time, treating the cells with cell lysis solution, and measuring reporter activity with a luminometer using a Dual luciferase assay. […]
The transcription-controlling activity of ERRγ3 was evaluated using a reporter gene assay. […]
The reporter gene assay was performed using CV-1 cells (African green monkey kidney-derived cell line) as hosts. […] They were then exposed to 4-hydroxytamoxifen at different concentrations (0, 10^−10 to −10^−5 M) for 24 hours, whereupon luciferase activity within the cells was measured.
Transfection was performed as follows: CV-1 cells were suspended at 2×10^5 cells/2.5 ml in DMEM medium supplemented with 10% fetal bovine serum, 2000 U/l of penicillin G, and 100 mg/l streptomycin. […] 1 μg of each of the transcription factor expression plasmid, the luciferase reporter plasmid, and another luciferase reporter plasmid for normalizing the measured value (pRL-TK), were dissolved in Opti-MEM (Gibco BRL) to total of 150 μl. […]

Molecule	binding to ERRγ1 [1]	transcription-controlling activity of ERRγ3 by itself [2]
4-hydroxytamoxifen [reference compound]	capable of binding	–
ERRγ3: novel ERRγ isoform, nuclear receptor protein of 396 amino acids (SEQ ID NO: 2) lacking part of the DNA binding domain (protein, listed as Homo sapiens) MSNKDRHIDSSCSSFIKTEPSSPASLTDSVNHHSPGGSSDASGSYSSTMNGHQNGLDSPPLYPSAPILGGSGPVRKLYDDCSSTIVEDPQTKCEYMLNSMPKRLCLVCGDIASGYHYGVASCEACKAFFKRTIQGVRLDRVRGGRQKYKRRIDAENSPYLNPQLAQPAKKPYNKIVSHLLVAEPEKIYAMPDPTVPDSDIKALTTLCDLADRELVVIIGWAKHIPGFSTLSLADQMSLLQSAWMEILILGVVYRSLSFEDELVYADDYIMDEDQSKLAGLLDLNNAILQLVKKYKSMKLEKEEFVTLKAIALANSDSMHIEDVEAVQKLQDVLHEALQDYEAGQHMEDPRRAGKMLMTLPLLRQTSTKAVQHFYNIKLEGKVPMHKLFLEMLEAKV	–	does not comprise the transcription-controlling activity
